According to patent US20250108119A1, “NOVEL STEROID PAYLOADS, STEROID LINKERS, ADCs CONTAINING AND USE THEREOF” (IMMUNEXT, INC., priority 2021, published 2025):
Entries after “also recorded” stand apart in the source; their conditions may differ.

Experiments:
[1] = tested on: transferred naïve CD4 T cells from hVISTA KI mice; assay: T cell transfer colitis model; assay type: in vivo, Rag1-/- mice
Procedure: After >21 days, animals slowly start to lose weight and decreases in circulating naïve T cells are observed. In this model, the ADC targets only the transferred cells while the free GC can act on both transferred and host cells.
In EXPERIMENT 1, mice were treated with INX234P at 10 mg/Kg starting on day 0 and then once a week. […] In EXPERIMENT 1 treatment was initiated on day 0 (prophylactic) and terminated on day 61, whereas in EXPERIMENT 2 treatment was initiated on day 21 (or therapeutic) and remains ongoing at the time of this filing.
In both experiments, all treatments were administered once a week.
For EXPERIMENT 1, INX234P treatment was initiated on day 0 (or prophylactic) after naïve CD4 T cell transfer and terminated on day 61.
Naïve CD4 T cells were isolated from hVISTA KI spleen using an EasySep™ Mouse Naïve CD4+ T cell Isolation kit from StemCell (catalog #19765) following manufacturer instruction.
Following the protocol of Ostanin et al (2008), […] naïve CD45RB+, CD4+ T cells were injected i.p. on day 0
10 ml of antibody cocktail (see table on the right) was directly added to […] of blood. After 30 min incubation at room temperature (RT), 600 ml BD FACS lysis buffer was added to the sample. After 30 min incubation at RT, samples were spun at 550 rcf for 5 min, washed once in PBS, and then resuspended in a fixed volume of PBS. […]

[2] = Payload accumulation in cynomolgus tissues (LC-MS/MS); details: single i.v.; INX234P 10 mg/kg, dexamethasone 2 mg/kg
[3] = tested on: steroid responsive genes in bone; assay: RNAseq of mouse bones after treatment; details: INX231P 10 mg/Kg i.p. 20h (hVISTA KI); Dex 2 mg/Kg 2h (C57BI/6)
[4] = Plasma corticosterone after repeated treatment; assay type: in vivo, hVISTA KI mice; details: Dex 2 or 0.2 mg/Kg daily for 4 days; INX201J 10 or 3 mg/Kg (0.2 or 0.06 mg/Kg of payload) on days 1, 3 and 4
Procedure: On day 5, mice were bled and their corticosterone levels assessed by ELISA.
The experiment was performed in female hVISTA KI mice. […] A control group was included that received daily PBS injections. On day 5, mice were bled and their plasma corticosterone levels assessed by ELISA.
The ELISA was conducted following the manufacturer's included protocol using Arbor Assays (cat #K014-H5) Corticosterone 5 pack ELISA Kit.

[5] = tested on: steroid responsive genes in bone (Fkpb5, RANKL, ddit4, Fam107a); assay: Steroid responsive gene transcription in bone (RNAseq); assay type: in vivo, mouse; details: Dex 2 mg/Kg i.p., 2h
From the text: In the figure Fkpb5 is shown on the left, RANKL the middle left, ddit4 the middle right and Fam107a on the extreme right.

C[C@@H]1C[C@H]2[C@@H]3CCC4=CC(=O)C=C[C@]4(C)[C@@]3(F)[C@@H](O)C[C@]2(C)[C@@]1(O)C(=O)CO [Dex, dexamethasone]
mice that had to be sacrificed ([1]; EXPERIMENT 1: high Dex (2 mg/Kg), 2 out of 10): 20%
median survival ([1]; EXPERIMENT 1: once a week day 0 to day 61, unconjugated INX234 10 mg/Kg, low Dex 0.2 mg/Kg): 72.5 days
accumulated compound in tissues at 24h (ng of compound/g of tissue) [2]: little accumulated free dexamethasone at 24h in any tissue
FKBP5 in bone (RNAseq) [3]: robust FKBP5 induction
basal plasma corticosterone levels on day 5 [4]: Dex at 2 mg/Kg dramatically decreased basal corticosterone levels; also recorded: only limited though significant impact at 0.2 mg/Kg
impact on steroid responsive genes in bone [5]: significantly impacted
